Test results reported in publication PMC7586797, “Phase 1 Study to Evaluate the Effect of the Investigational Anticancer Agent Sapanisertib on the QTc Interval in Patients With Advanced Solid Tumors” (Clinical Pharmacology in Drug Development, 2020).
Several values for one entry are separate records, joined by “and”; a condition that tells them apart may be missing. Equal entries are not always repeated. Where two headings read alike, the source gives them in different places.

Key:
[1] = Plasma pharmacokinetics after single 40 mg oral dose (LC-MS/MS, noncompartmental); format: in vivo, human; conditions: 40 mg single oral dose; for AUC(0-inf) / Cmax / Tmax / half-life: human, po, 40 mg
Experimental: (§1) On cycle 1 day 1, triplicate ECGs and plasma samples for PK were collected from patients ≤15 minutes prior to dosing and at 15 minutes; 30 minutes; and 1‐, 1.5‐, 2‐, 2.5‐, 3‐, 4‐, 6‐, 8‐, and 10‐hour time points after receiving a single oral dose of 40‐mg sapanisertib. The Holter recorders and ECG leads were removed from patients after collection of the 10‐hour time point ECG on day 1, following which patients were furloughed from site. Additional collections of ECGs and plasma samples for PK were conducted at 24 (cycle 1 day 2) and 48 hours (cycle 1 day 3) after dosing. After the first week, that is, cycle 1 day 8, patients had the option to continue to receive treatment with sapanisertib at a dose of 30 mg once weekly in continuous 28‐day cycles until disease progression, unacceptable toxicity, withdrawal of consent, or completion of the 12‐month maximum study duration.
Plasma samples were analyzed for sapanisertib using a validated liquid chromatography with tandem mass spectrometry method with deuterated sapanisertib used as the internal standard. Multiple reactant monitoring was performed using a positive electrospray method for the mass transitions (m/z) of 310.0 to 268.1 for sapanisertib and 317.0 to 269.1 for deuterated sapanisertib. A Shimadzu high‐pressure liquid chromatography system and Sciex API 4000 tandem mass spectrometry system were used with an Agilent Eclipse plus C18, 50 × 4.6 mm, 3.50‐µm column. For extraction, 50 µL of diluent (0.1% formic acid in acetonitrile/water, 50:50, v/v) and 20 µL of internal standard solution (0.5 µg/mL in diluent) were added to 50 µL of ethylenediaminetetraacetic acid plasma followed by vortex mixing. Plasma proteins were precipitated by adding 500 µL of 0.2% formic acid in acetonitrile followed by vortex mixing for 2 minutes and centrifugation for 5 minutes. A 40‐µL aliquot of the supernatant was transferred to a high‐pressure liquid chromatography vial containing 400 µL of reconstitution solution (10 mM ammonium formate and 10 mM citric acid in acetonitrile/water, 20:80, v/v). Injection volume was 10 µL. A gradient mobile phase (from 20% to 98%) was used, composed of mobile phase A: 0.1% formic/4 mM ammonium formate in water and mobile phase B: 0.1% formic acid and 4 mM ammonium formate in acetonitrile/water 98:2, v/v). The sapanisertib retention time was 1.7 minutes. The dynamic range of the assay was 1 to 1000 ng/mL. Assay accuracy expressed as %bias for the quality control samples ranged from –4.0% to –2.7% and assay precision expressed as percentage coefficient of variation (%CV) for quality control samples, ranged from 3.0% to 9.5% in plasma.
(§2) PK parameters were calculated by noncompartmental methods using WinNonLin Professional version 6.1 (Certara, Princeton, New Jersey). The PK analysis population was defined as all patients who received at least 1 dose of sapanisertib and had sufficient concentration‐time data to calculate ≥1 PK parameters. The safety population included all patients who received ≥1 dose of sapanisertib, according to the National Cancer Institute Common Terminology Criteria for Adverse Events, version 4.03.

[2] = system: patients with advanced solid tumors; test: Safety: adverse events (NCI CTCAE v4.03); format: in vivo, human
Experimental: as §1, §2

[3] = system: patients with advanced solid tumors; conditions: in vivo
From the text: The relationships between concentration of sapanisertib and QTc and RR intervals were quantitatively analyzed in the PK/QTc analysis population using PK and ECG data from all patients. The data were first explored by graphical analysis, including a visual check for evidence of hysteresis. Mixed‐effects models were subsequently developed to describe the direct effect of sapanisertib on change from time‐matched baseline in RR, QTcI, and QTcF.
Standard diagnostic and goodness‐of‐fit plots were used for model evaluation and adequacy, plausibility, and precision of parameter estimates. A visual predictive check for the final model was generated to evaluate whether the model provided an accurate description of the data. The estimated parameters were reported with the standard error of the estimates as a measure of uncertainty, and nonparametric bootstrap resampling was used to construct 95%CI for the population parameters in each model. All model development was conducted with a qualified installation of the nonlinear mixed‐effects modeling software, version 7.3 (ICON Development Solutions, Hanover, Maryland). All data analyses were conducted using a qualified installation of the statistical software R.
A linear mixed‐effects model was used to characterize the direct effect of sapanisertib plasma concentration on ΔQTcI. […] The linear mixed‐effects model of sapanisertib plasma concentration versus ΔQTcI was subsequently used to predict the effect of sapanisertib on QTcI at the expected Cmax values for 4‐, 30‐, and 40‐mg sapanisertib doses. […] Model‐based simulations from the fitted model for ΔQTcI versus sapanisertib plasma concentration were used to generate CIs across the range of observed concentrations and to estimate the probability of patient ΔQTcI values exceeding 30‐ and 60‐millisecond thresholds at Cmax values corresponding to the 4‐, 30‐, and 40‐mg doses (Table 4).

[4] = system: organic cation transporter 2; set-up: method as in Takeda data on file; conditions: in vitro; ref Takeda data on file; cited from earlier work
[5] = set-up: method as in data on file; conditions: in vitro; ref data on file; cited from earlier work
[6] = set-up: method as in Takeda, data on file; conditions: human hepatocytes; ref Takeda, data on file; cited from earlier work
CYP and UGT enzymes = system: CYP and UGT enzymes; set-up: method as in Takeda, data on file; conditions: in vitro reaction phenotyping; ref Takeda, data on file; cited from earlier work

## CC(C)n1nc(-c2ccc3oc(N)nc3c2)c2c(N)ncnc21 [sapanisertib]
[1]; empty stomach
  CL (apparent clearance), Geometric mean (%CV): 16.1 L/h and 16.1 (46.3) L/h
  CL (apparent clearance), Mean (SD): 18.3 (8.5) L/h
  CL (apparent clearance), Median (range): 18.0 (3.1–41.8) L/h
[1]; empty stomach, read-out: AUC∞, Geometric mean (%CV)
  AUC(0-inf): 2480 ng·h/mL
[1]; empty stomach, read-out: AUC∞, Mean (SD)
  AUC(0-inf): 2990 ng·h/mL
[1]; empty stomach, read-out: AUC∞, Median (range)
  AUC(0-inf): 2220 ng·h/mL
[1]; empty stomach, read-out: Cmax, Geometric mean (%CV)
  Cmax: 297 ng/mL
[1]; empty stomach, read-out: Cmax, Mean (SD)
  Cmax: 337 ng/mL
[1]; empty stomach, read-out: Cmax, Median (range)
  Cmax: 317 ng/mL
[1]; empty stomach, read-out: Tmax, Geometric mean (%CV)
  Tmax: 1.73 h
[1]; empty stomach, read-out: Tmax, Mean (SD)
  Tmax: 2.51 h
[1]; empty stomach, read-out: Tmax, Median (range)
  Tmax: 1.52 h
[1]; no unit in table (hours), read-out: T1/2 (terminal disposition half-life), Geometric mean (%CV) (converted)
  half-life: 9.06 h
[1]; no unit in table (hours), read-out: T1/2 (terminal disposition half-life), Mean (SD) (converted)
  half-life: 9.48 h
[1]; no unit in table (hours), read-out: T1/2 (terminal disposition half-life), Median (range) (converted)
  half-life: 9.07 h
[1]; standard deviation 2.9 hours, read-out: Mean plasma half-life (converted)
  half-life: 9.5 h
[2]; N = 44, neither death considered related to study drug
  Patients who died during the study: Two
[2]; human, in vivo
  AE of special interest: asthenic conditions: 61%
  AE of special interest: hyperglycemia: 18%
  AE of special interest: mucosal inflammation: 25%
  AE of special interest: rash: 20%
  AE of special interest: renal insufficiency: 5%
  Dehydration, grade ≥3: 5%
  Diarrhea, grade ≥3: 5%
  Fatigue, any grade: 61%
  Fatigue, grade ≥3: 16%
  Hyperglycemia, grade ≥3: 5%
  Nausea, any grade: 80%
  Patients who experienced adverse events: 98%
  Patients with grade ≥3 AEs: 59%
  Stomatitis, grade ≥3: 5%
  Vomiting, any grade: 57%
[2]; in vivo
  Patients who discontinued study due to AEs: Four
[3]; human
  Estimated probability that ΔQTcF would exceed 30 milliseconds or 60 milliseconds: < 0.0001
[3]
  Association of ΔQTcF with plasma concentration: weakly negative association
  Association of ΔQTcI with plasma concentration: weakly negative association
  Association of ΔRR with plasma concentration: weakly positive association
[4]
  IC50: 1900 nM
[5]
  Bound to human plasma proteins: 70.5%
[6]
  Share of hepatic metabolism mediated by cytochrome P450 (CYP) isozymes: ~60%
  Share of hepatic metabolism mediated by other non-CYP enzymes: ~20%
  Share of hepatic metabolism mediated by uridine 5'-diphospho-glucuronosyltransferases: ~20%
CYP and UGT enzymes
  CYP enzymes participating in oxidative metabolism: CYP1A2, 3A4, and 2C19
